{
  "source": "patent US8394814B2",
  "about": "“Method of purifying crude noscapine” (priority 2008, dated 2013)",
  "key": {"[1]": {"assay_type": "physicochemical", "procedure": "To characterize the solubility of noscapine in acetonitrile/water systems, the following experiment was conducted. […] The results of the solubility measurements are summarized in Table 3 and are summarized in a graph in FIG. 8."}, "[2]": {"assay_type": "physicochemical", "settings": "for Solubility: room temperature; for Reduction of the solubility of noscapine by adding an equal amount of water: Table 1 compared with Table 2", "procedure": "Noscapine solubility was also determined at room temperature for the following solvent mixtures, mixed in a roughly 1:1 ratio by weight: acetone:water, acetonitrile:water, chloroform:ethanol, toluene:ethanol. Solubilities were determined using methods similar to those described above, and the measured solubilities are summarized in Table 2."}, "[3]": {"assay_type": "physicochemical", "settings": "for Solubility: neutral pH", "procedure": "To determine the solubility of noscapine in a variety of different solvents at neutral pH, the following experiment was conducted. Noscapine solubility was determined at ambient temperature (22° C.-23° C.) and at 50° C. by dissolving noscapine and noting the amount dissolved prior to saturation for the following solvents: acetone, acetonitrile, ethanol, isopropanol, methanol, pentanol, toluene, and water."}},
  "note": "Where two headings read alike, the source gives them in different places.",
  "data": [
    {"smiles": "COc1ccc2c(c1OC)C(=O)O[C@@H]2[C@H]1c2c(cc3c(c2OC)OCO3)CCN1C", "note": "[noscapine]", "values": [
      {"measurement": "Solubility", "setting": "[1]; 0% acetonitrile by weight in water, 50° C.", "result": "0.2 mg noscapine per gram of solve"},
      {"measurement": "Solubility", "setting": "[1]; 0% acetonitrile by weight in water, 70° C.", "result": "0.2 mg noscapine per gram of solve"},
      {"measurement": "Solubility", "setting": "[1]; 20% acetonitrile by weight in water, 50° C.", "result": "0.8 mg noscapine per gram of solve"},
      {"measurement": "Solubility", "setting": "[1]; 20% acetonitrile by weight in water, 70° C.", "result": "1.4 mg noscapine per gram of solve"},
      {"measurement": "Solubility", "setting": "[1]; 40% acetonitrile by weight in water, 50° C.", "result": "8.1 mg noscapine per gram of solve"},
      {"measurement": "Solubility", "setting": "[1]; 40% acetonitrile by weight in water, 70° C.", "result": "6.7 mg noscapine per gram of solve"},
      {"measurement": "Solubility", "setting": "[1]; 60% acetonitrile by weight in water, 50° C.", "result": "32.6 mg noscapine per gram of solve"},
      {"measurement": "Solubility", "setting": "[1]; 60% acetonitrile by weight in water, 70° C.", "result": "46.3 mg noscapine per gram of solve"},
      {"measurement": "Solubility", "setting": "[1]; 80% acetonitrile by weight in water, 50° C.", "result": "82.8 mg noscapine per gram of solve"},
      {"measurement": "Solubility", "setting": "[1]; 80% acetonitrile by weight in water, 70° C.", "result": "181.9 mg noscapine per gram of solve"},
      {"measurement": "Solubility", "setting": "[1]; 100% acetonitrile by weight, 50° C.", "result": "131.0 mg noscapine per gram of solve"},
      {"measurement": "Solubility", "setting": "[1]; 100% acetonitrile by weight, 70° C.", "result": "226.5 mg noscapine per gram of solve"},
      {"measurement": "Change of solubility in acetonitrile with temperature", "setting": "[1]; acetonitrile, temperature increased from 22° C. to 50° C.", "result": "more than doubles"},
      {"measurement": "Increase of solubility in the acetonitrile/water mixture", "setting": "[1]; between 0° C. and 70° C., acetonitrile concentrations of about 50% or above", "result": "up to 10 fold"},
      {"measurement": "Ratio of the solubility in pure acetonitrile to the solubility in pure water", "setting": "[1]; solvent temperature 0° C.", "result": "about 78"},
      {"measurement": "Ratio of the solubility in pure acetonitrile to the solubility in pure water", "setting": "[1]; solvent temperature 70° C.", "result": "about 647"},
      {"measurement": "Solubility", "setting": "[2]; Acetone 49.4% / Water 50.6% by weight", "result": "3.21 mg noscapine/g of solvent"},
      {"measurement": "Solubility", "setting": "[2]; Acetonitrile 48.6% / Water 51.4% by weight", "result": "1.06 mg noscapine/g of solvent"},
      {"measurement": "Solubility", "setting": "[2]; Chloroform 50.0% / Ethanol 50.0% by weight", "result": "73.34 mg noscapine/g of solvent"},
      {"measurement": "Solubility", "setting": "[2]; Toluene 51.0% / Ethanol 49.0% by weight", "result": "37.21 mg noscapine/g of solvent"},
      {"measurement": "Reduction of the solubility of noscapine by adding an equal amount of water", "setting": "[2]; second solvent of 'acetone and water' as printed", "result": "about 98%"},
      {"measurement": "Reduction of the solubility of noscapine by adding an equal amount of water", "setting": "[2]; solvent acetone", "result": "about 95%"},
      {"measurement": "Solubility", "setting": "[3]; Acetone, 23° C.", "result": "68.56 mg of noscapine/g of solvent"},
      {"measurement": "Solubility", "setting": "[3]; Acetone, 50° C.", "result": "145.98 mg of noscapine/g of solvent"},
      {"measurement": "Solubility", "setting": "[3]; Acetonitrile, 23° C.", "result": "52.33 mg of noscapine/g of solvent"},
      {"measurement": "Solubility", "setting": "[3]; Acetonitrile, 50° C.", "result": "151.21 mg of noscapine/g of solvent"},
      {"measurement": "Solubility", "setting": "[3]; Chloroform, 23° C.", "result": "504.11 mg of noscapine/g of solvent"},
      {"measurement": "Solubility", "setting": "[3]; Ethanol, 50° C.", "result": "5.90 mg of noscapine/g of solvent"},
      {"measurement": "Solubility", "setting": "[3]; Isopropanol, 50° C.", "result": "12.99 mg of noscapine/g of solvent"},
      {"measurement": "Solubility", "setting": "[3]; Methanol, 50° C.", "result": "1.81 mg of noscapine/g of solvent"},
      {"measurement": "Solubility", "setting": "[3]; Pentanol, 50° C.", "result": "12.29 mg of noscapine/g of solvent"},
      {"measurement": "Solubility", "setting": "[3]; Toluene, 23° C.", "result": "40.65 mg of noscapine/g of solvent"},
      {"measurement": "Solubility", "setting": "[3]; Toluene, 50° C.", "result": "59.99 mg of noscapine/g of solvent"},
      {"measurement": "Solubility", "setting": "[3]; Water, 50° C.", "result": "0.82 mg of noscapine/g of solvent"},
      {"measurement": "Solubility in words", "setting": "[3]; chloroform", "result": "highly soluble"},
      {"measurement": "Solubility in words", "setting": "[3]; water", "result": "nearly insoluble"}
    ]}
  ]
}
